# Measurements reported in BindingDB's records for doi:10.1016/j.bmcl.2009.04.147 (Banyu Pharmaceutical, 2009).
# pIC50: −log10 of the molar value.
# Target: Melanin-concentrating hormone receptor 1 (Homo sapiens, UniProt Q99705)
# Assay: Radioligand Binding Assay (IC50) and Functional Assay (EC50/IC50)
# Details: pH 7.4; 22 °C
# Experimental: Compounds were evaluated for their binding affinity to the membranes of CHO-K1 cells expressing human MCH1R (hMCH1R) in a competition binding assay with [125I]-MCH as the radioligand. After incubation, the membranes were filtrated onto GF/C filter plates and dried. The radioactivity was counted using a microplate scintillation counter (TopCount, PerkinElmer). Non-specific binding was determined by including 1 uM unlabeled MCH in the binding reaction. Antagonistic activity (EC50/IC50) was estimated by the inhibitory effect of compounds on intracellular calcium mobilization induced by MCH using a FLIPR in CHO-K1 cells expressing human MCH1R. The cells were treated with the test compounds for 5 min before addition of MCH.
# Chain of Melanin-concentrating hormone receptor 1 (Q99705 as listed by the source): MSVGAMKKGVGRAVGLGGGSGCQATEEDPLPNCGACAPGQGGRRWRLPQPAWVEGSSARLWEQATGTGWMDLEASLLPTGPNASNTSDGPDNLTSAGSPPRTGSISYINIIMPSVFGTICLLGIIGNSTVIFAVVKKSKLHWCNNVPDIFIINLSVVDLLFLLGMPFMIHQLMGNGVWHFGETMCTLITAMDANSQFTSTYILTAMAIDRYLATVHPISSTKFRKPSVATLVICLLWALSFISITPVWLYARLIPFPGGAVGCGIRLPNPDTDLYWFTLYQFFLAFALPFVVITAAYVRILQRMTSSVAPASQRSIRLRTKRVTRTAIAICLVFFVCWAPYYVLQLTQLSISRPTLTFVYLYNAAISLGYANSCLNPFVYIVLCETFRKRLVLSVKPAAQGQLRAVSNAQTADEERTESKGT
row,pIC50,SMILES
1,7.66,"CN(c1nc2ccc(NC(=O)CCc3ccc(C(F)(F)F)cc3)cc2[nH]1)C1CCCC1 [2-aminobenzimidazole-based compound, 12]"
2,7.68,"CC(C)N(C)c1nc2ccc(NC(=O)CCc3ccc(C(F)(F)F)cc3)cc2[nH]1 [2-aminobenzimidazole-based compound, 8]"
3,7.57,"CN(c1nc2ccc(NC(=O)CCc3ccc(C(F)(F)F)cc3)cc2[nH]1)C1CCCCC1 [2-aminobenzimidazole-based compound, 13]"
